Patent US9493453B2, “Piperazinyl pyrimidine derivatives, preparation method and use thereof” (INSTITUTE OF PHARMACOLOGY AND TOXICOLOGY ACADEMY OF …, priority 2012, dated 2016)
Read-outs that look alike come from different tables or passages of the source.

Key:
CCR4 receptor = biological target: T1, CCR4 receptor (Homo sapiens, UniProt P51679); assay: Inhibition of MDC/TARC/C27 mediated chemotactic response of CCR4-transfected HEK293 cells (Boyden chamber); type: cell-based; details: chemotactic inhibition rate, compound 1 μM, HEK293 cells transfected with pCDI-CCR4, 5 hours
T1 construct: cDNA fragments of receptor open reading frame were respectively inserted into pcDI; expressed in transfected cells; host or cells: HEK293 cells, transiently transfected by electroporation with pCDI-CCR4
T1 sequence (P51679 1-360): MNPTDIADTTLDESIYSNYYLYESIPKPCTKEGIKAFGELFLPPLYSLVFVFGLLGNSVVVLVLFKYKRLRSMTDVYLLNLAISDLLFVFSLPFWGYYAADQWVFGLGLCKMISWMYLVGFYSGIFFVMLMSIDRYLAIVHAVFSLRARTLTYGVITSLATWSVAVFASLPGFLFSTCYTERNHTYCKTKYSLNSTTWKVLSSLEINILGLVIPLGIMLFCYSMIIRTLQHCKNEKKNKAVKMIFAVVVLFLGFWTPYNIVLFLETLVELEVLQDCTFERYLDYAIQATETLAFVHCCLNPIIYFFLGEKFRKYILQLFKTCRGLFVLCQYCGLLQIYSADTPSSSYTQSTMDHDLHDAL
From the text: Whether or not compounds 1-14 of the present invention can inhibit MDC (Peprotech) mediated chemotactic response of HEK293 cells was studied by using Boyden chamber (Neuro Probe, Inc.).
1. Construction of Receptor Expression Plasmid:
cDNA fragments including human chemokine receptor open reading frame were obtained by the following method: CCR4 receptor was cloned from a cDNA library of K562 cells through polymerase chain reaction (PCR). Primers were designed according to the sequence of Gen-Bank™ accession: CCR4 (NM_005508.2). cDNA fragments of receptor open reading frame were respectively inserted into pcDI (vector transformed in the chamber: eukaryotic expression vector obtained by replacing a BglII KpnI fragment of pcDNA3 (Invitrogen Corporation) plasmid with a BglII KpnI fragment of pCI (Promega Corporation) plasmid) expression vector so as to make them effectively express in HEK293 cells.
HEK293 cells were cultured in RPMI 1640 (Life Technologies, Inc.) containing 10% heat-inactivated fetal bovine serum, 100 U/mL penicillin, 100 μg/mL streptomycin. Each 4×10^6 HEK293 cells/400 μL were transiently transfected through electroporation with 15 μg chemokine receptor expression plasmids, under the condition of 120 V for 20 ms, the instrument used being electric pulse generator (Electro Square porator ECM 830, BTX, San Diego, Calif.). After 36-48 hr, chemotactic assay was carried out.
3. The Inhibitory Effect on MDC/TARC/C27 Mediated Chemotactic Response of HEK293 Cells
Chemokines MDC/TARC/C27 were diluted to 10 ng/mL with RPMI1640 (Life Technologies, Inc.), 0.1% BSA (Sigma), and added to lower holes in a 48-hole chemotactic chamber, 27.5 μL each hole. Eukaryotic expression plasmids pCDI-CCR4 were electrically shifted to HEK293 cells, and cultured normally for 36 hr. The cells were digested, re-suspended with RPMI1640, 10% FBS (Life Technologies, Inc.), and subjected to rotary incubation at 37° C. for 6.5 hours. The cells were washed twice with RPMI1640, and suspended in RPMI1640, 0.1% BSA, with a final concentration of 1×10^6/mL. The cells and the candidate compound dissolved in DMSO (Sigma) were subjected to rotary incubation at room temperature for half an hour, the final concentration of the candidate compound being 1 μM, and the final concentration of DMSO being 0.1%, and then added to upper holes in the chemotactic chamber, 55 μL each hole. The two layers were spaced by a polycarbon membrane with pore size of […] (Neuro Probe, Inc.). The chemotactic reaction was carried out in 5% CO2 at 37° C. for 5 hours. There were three groups of control in the experiment, wherein the first group was positive control, in which the transfected cells were directly added to upper holes without incubated with the candidate compound, while chemokines MDC/TARC/C27 were added to lower holes. The second group was negative control, in which the transfected cells were directly added to upper holes without incubated with the candidate compound, while RPMI1640, 0.1% BSA were added to lower holes. The third group was solvent DMSO control of the candidate compound, in which the transfected cells and DMSO were incubated at room temperature, the final concentration of DMSO being 0.1%, while chemokines MDC/TARC/C27 were added to lower holes. After completion of the chemotactic reaction, the membrane was removed, fixed and stained, and, at 400× high magnification, five horizons were randomly selected to count the cells, which were then summed. The ratio of the sum of the numbers of cells in five horizons at high magnification in each experimental group to the sum of the numbers of cells in five horizons at high magnification in the negative control group is obtained as Chemotactic Index (CI). Chemotactic inhibition rate was calculated as follows: […]

mice rhinitis model = assay: Mice rhinitis model experiment (OVA-sensitized BALB/c mice); type: in vivo; details: Example 8 compound 1 μg/Kg, budesonide 1.28 mg/Kg
Method: Mice Rhinitis Model Experiment
Female BALB/c mice (6-8 weeks) were sensitized with chicken ovalbumin (OVA, Sigma-Aldrich, St Louis, Mo., USA). The compound of the present invention (for example, the compound of Example 8) was administered to nasal mucosa, at a dose 1 μg/Kg. Glucocorticoid hormonal drug budesonide, a first-line clinical drug, was used as positive control, at a dose 1.28 mg/Kg. Meanwhile, there were provided a normal group wherein the mice were not sensitized and not administered, and an OVA group wherein the mice were sensitized and not administered. The following five indicators were detected: the number of sneezing, the number of nasal scratching within 10 min after administration; IL-4 level in bronchoalveolar lavage fluid; serum IgE level; lung tissue inflammation score. Lung tissue inflammation score was rated according to a single blind method: inflammation was divided into four levels from mild to severe, marked as 0-3 scores: 0 representing no detected inflammation; 1 representing occasional inflammatory cells being visible; 2 representing bronchus or blood vessel being surrounded by eosinophils, but less than five cell layers; 3 representing bronchus or blood vessel being surrounded by a large number of eosinophils, with 5 or more cell layers.

[1] = chemokine C27 10 ng/mL, read-out: C27 inhibition rate
[2] = chemokine MDC 10 ng/mL, read-out: MDC inhibition rate
[3] = chemokine TARC 10 ng/mL, read-out: TARC inhibition rate
[4] = OVA-sensitized female BALB/c mice, nasal mucosa, within 10 min after administration

| inhibition at 1 µM (CCR4 receptor; [1]) | inhibition at 1 µM (CCR4 receptor; [2]) | inhibition at 1 µM (CCR4 receptor; [3]) | SMILES | IL-4 (mice rhinitis model; IL-4 level in bronchoalveolar lavage fluid, OVA-sensitized mice) | Nasal scratching (mice rhinitis model; [4]) | Sneezing (mice rhinitis model; [4]) | Inflammation score (mice rhinitis model; lung tissue inflammation score 0-3, single blind, OVA-sensitized mice) | IgE (mice rhinitis model; serum IgE level, OVA-sensitized mice) |
| --- | --- | --- | --- | --- | --- | --- | --- | --- |
| 37.9% | 30% | 51% | COCCN(CCOC)c1cc(NCc2ccc(Cl)cc2Cl)nc(N2CCN(C(=O)C3CCCCC3)CC2)n1 [Compound 7, {4-{4-[bis(2-methoxyethyl)amino]-6-(2,4-dichlorobenzylamino)-pyrimidin-2-yl}piperazin-1-yl}cyclohexylmethanone] | – | – | – | – | – |
| 51.2% | 19.4% | 55.7% | COCCN(CCOC)c1cc(NCc2ccc(Cl)cc2Cl)nc(N2CCN(C(=O)CCSC)CC2)n1 [Compound 6, 1-{4-{4-[bis(2-methoxyethyl)amino]-6-(2,4-dichlorobenzylamino)-pyrimidin-2-yl}piperazin-1-yl}-3-methylthiopropanone] | – | – | – | – | – |
| 35.2% | 32.3% | 61.4% | CC(C)C(=O)N1CCN(c2nc(NCc3ccc(Cl)cc3Cl)c3cccnc3n2)CC1 [Compound 11, 1-{4-{4-[(2,4-dichlorobenzyl)amino]pyrido[2,3-d]pyrimidin-2-yl}piperazin-1-yl}-2-methylpropanone] | – | – | – | – | – |
| 16.7% | 48.8% | 35.2% | CCCN1CCN(c2nc(NCc3ccc(Cl)cc3Cl)c3cccnc3n2)CC1 [Compound 13, 4-[(2,4-dichlorobenzyl)amino]-2-(4-propylpiperazin-1-yl)pyrido[2,3-d]pyrimidine] | – | – | – | – | – |
| 25.3% | 36.3% | 46.4% | CCC(=O)N1CCN(c2nc(NCc3ccc(Cl)cc3Cl)cc(N(C)CC(OC)OC)n2)CC1 [Compound 1, 1-{4-{4-[(2,4-dichlorobenzyl)amino]-6-[(2,2-dimethoxyethyl)methylamino]pyrimidin-2-yl}piperazin-1-yl}propanone] | – | – | – | – | – |
| 6.17% | 57.2% | 61.1% | O=C(C1CCCCC1)N1CCN(c2nc(NCc3ccc(Cl)cc3Cl)c3cccnc3n2)CC1 [Compound 12, cyclohexyl{4-{4-[(2,4-dichlorobenzyl)amino]pyrido[2,3-d]pyrimidin-2-yl}piperazin-1-yl}methanone] | – | – | – | – | – |
| 38.3% | 32.3% | 59.8% | CCC(=O)N1CCN(c2nc(NCc3ccc(Cl)cc3Cl)c3cccnc3n2)CC1 [Compound 10, 1-{4-{4-[(2,4-dichlorobenzyl)amino]pyrido[2,3-d]pyrimidin-2-yl}piperazin-1-yl}propanone] | – | – | – | – | – |
| 39% | 36.1% | 41.7% | COC(CN(C)c1cc(NCc2ccc(Cl)cc2Cl)nc(N2CCN(C(=O)C(C)C)CC2)n1)OC [Compound 2, 1-{4-{4-[(2,4-dichlorobenzyl)amino]-6-[(2,2-dimethoxyethyl)methylamino]pyrimidin-2-yl}piperazin-1-yl}-2-methylpropanone] | – | – | – | – | – |
| 43.9% | 35.5% | 58.3% | COC(CN(C)c1cc(NCc2ccc(Cl)cc2Cl)nc(N2CCN(C(=O)CCSC)CC2)n1)OC [Compound 3, 1-{4-{4-[(2,4-dichlorobenzyl)amino]-6-[(2,2-dimethoxyethyl)methylamino]pyrimidin-2-yl}piperazin-1-yl}-3-methylthiopropanone] | – | – | – | – | – |
| 34.6% | 54.9% | 45.2% | CCC(=O)N1CCN(c2nc(NCc3ccc(Cl)cc3Cl)cc(N(CCOC)CCOC)n2)CC1 [Compound 4, 1-{4-{4-[bis(2-methoxyethyl)amino]-6-(2,4-dichlorobenzylamino)-pyrimidin-2-yl}piperazin-1-yl}propanone] | – | – | – | – | – |
| 39.5% | 22.2% | 10.4% | O=C([C@@H]1CSCCN1)N1CCN(c2nc(Cl)cc(NCc3ccc(Cl)cc3Cl)n2)CC1 [Compound 9, (R)-{4-{4-chloro-6-[(2,4-dichlorobenzyl)amino]pyrimidin-2-yl}piperazin-1-yl}(thiomorpholin-3-yl)methanone] | – | – | – | – | – |
| 30.5% | 62.1% | 73.6% | O=C([C@@H]1CSCCN1)N1CCN(c2nc(NCc3ccc(Cl)cc3Cl)c3cccnc3n2)CC1 [Compound 14, (R)-{4-{4-[(2,4-dichlorobenzyl)amino]pyrido[2,3-d]pyrimidin-2-yl}piperazin-1-yl}(thiomorpholin-3-yl)methanone] | – | – | – | – | – |
| – | – | – | CCCC1O[C@@H]2C[C@H]3[C@@H]4CCC5=CC(=O)C=C[C@]5(C)[C@H]4[C@@H](O)C[C@]3(C)[C@]2(C(=O)CO)O1 (some centres unmarked) [Budesonide, budesonide, reference compound] | 2.9 ± 1.5 pg/mL | 12.0 ± 1.3 times/10 mins | 31.7 ± 4.0 times/10 mins | 1.5 ± 0.6 | 2822 ± 51 ng/mL |
| 40.1% | 54.5% | 39.1% | COCCN(CCOC)c1cc(NCc2ccc(Cl)cc2Cl)nc(N2CCN(C(=O)C(C)C)CC2)n1 [Compound 5, 1-{4-{4-[bis(2-methoxyethyl)amino]-6-(2,4-dichlorobenzylamino)-pyrimidin-2-yl}piperazin-1-yl}-2-methylpropanone] | – | – | – | – | – |
